Test results from ChEMBL document CHEMBL1145485, “Immunomodulatory peptide from cystatin, a natural cysteine protease inhibitor, against leishmaniasis as a model macrophage disease” (Antimicrob Agents Chemother, 2007).
The source made the active and inactive calls. The calls are words filed in the database; no cut-off is given here.

Assays:
[1] = system: Leishmania donovani; assay: Antileishmanial activity against Leishmania donovani MHOM/IN/1983 infected BALB/c mouse peritoneal macrophages in presence of IFN-gamma; type: functional, organism-based
[2] = system: Macrophage; assay: Reversal of increase in NO release in BALB/c mouse peritoneal macrophages upto 1 uM in presence of anti-peptide antibody; type: functional, cell-based
[3] = system: Leishmania donovani; assay: Antileishmanial activity against Leishmania donovani AG83 infected BALB/c mouse assessed as reduction of spleen burden at 0.5 mg/kg/day, iv in presence of IFN-gamma after 45 days; type: functional; design: scale not given: the % may be the effect or the level left
[4] = system: Leishmania donovani; assay: Antileishmanial activity against Leishmania donovani AG83 infected BALB/c mouse assessed as reduction of liver burden at 0.5 mg/kg/day, iv in presence of IFN-gamma after 45 days; type: functional; design: scale not given: the % may be the effect or the level left
[5] = system: Leishmania donovani; assay: Reversal of antileishmanial activity against Leishmania donovani MHOM/IN/1983 infected BALB/c mouse peritoneal macrophages in presence of anti-peptide antibody; type: functional, organism-based
[6] = system: Leishmania donovani; assay: Reversal of antileishmanial activity against Leishmania donovani MHOM/IN/1983 infected BALB/c mouse peritoneal macrophages in presence of 2-amino-5,6-dihydro-6-methyl-4H-1,3-thiazine; type: functional, organism-based
[7] = system: Macrophage; assay: Increase in NO release in BALB/c mouse peritoneal macrophages upto 1 uM; type: functional, cell-based

## H-PVPVDENDEG-OH
[1]
  IC50: 0.52 µg/mL
[2]
  Activity: Active
[3]
  Activity: 95%
[4]
  Activity: 93%
[5]
  Activity: Active
[6]
  Activity: Active
[7]
  Activity: Active
